{"source": "patent US12539292B2", "about": "“BRM targeting compounds and associated methods of use” (Arvinas Operations, Inc., priority 2018, dated 2026)", "biological_target": "T1, BRM (Homo sapiens, UniProt P51531)", "T1 construct": "In-Cell Western Screen of BRM Degradation in SW1573 Cells; endogenous in cells; host or cells: SW1573", "T1 sequence (P51531 whole entry)": "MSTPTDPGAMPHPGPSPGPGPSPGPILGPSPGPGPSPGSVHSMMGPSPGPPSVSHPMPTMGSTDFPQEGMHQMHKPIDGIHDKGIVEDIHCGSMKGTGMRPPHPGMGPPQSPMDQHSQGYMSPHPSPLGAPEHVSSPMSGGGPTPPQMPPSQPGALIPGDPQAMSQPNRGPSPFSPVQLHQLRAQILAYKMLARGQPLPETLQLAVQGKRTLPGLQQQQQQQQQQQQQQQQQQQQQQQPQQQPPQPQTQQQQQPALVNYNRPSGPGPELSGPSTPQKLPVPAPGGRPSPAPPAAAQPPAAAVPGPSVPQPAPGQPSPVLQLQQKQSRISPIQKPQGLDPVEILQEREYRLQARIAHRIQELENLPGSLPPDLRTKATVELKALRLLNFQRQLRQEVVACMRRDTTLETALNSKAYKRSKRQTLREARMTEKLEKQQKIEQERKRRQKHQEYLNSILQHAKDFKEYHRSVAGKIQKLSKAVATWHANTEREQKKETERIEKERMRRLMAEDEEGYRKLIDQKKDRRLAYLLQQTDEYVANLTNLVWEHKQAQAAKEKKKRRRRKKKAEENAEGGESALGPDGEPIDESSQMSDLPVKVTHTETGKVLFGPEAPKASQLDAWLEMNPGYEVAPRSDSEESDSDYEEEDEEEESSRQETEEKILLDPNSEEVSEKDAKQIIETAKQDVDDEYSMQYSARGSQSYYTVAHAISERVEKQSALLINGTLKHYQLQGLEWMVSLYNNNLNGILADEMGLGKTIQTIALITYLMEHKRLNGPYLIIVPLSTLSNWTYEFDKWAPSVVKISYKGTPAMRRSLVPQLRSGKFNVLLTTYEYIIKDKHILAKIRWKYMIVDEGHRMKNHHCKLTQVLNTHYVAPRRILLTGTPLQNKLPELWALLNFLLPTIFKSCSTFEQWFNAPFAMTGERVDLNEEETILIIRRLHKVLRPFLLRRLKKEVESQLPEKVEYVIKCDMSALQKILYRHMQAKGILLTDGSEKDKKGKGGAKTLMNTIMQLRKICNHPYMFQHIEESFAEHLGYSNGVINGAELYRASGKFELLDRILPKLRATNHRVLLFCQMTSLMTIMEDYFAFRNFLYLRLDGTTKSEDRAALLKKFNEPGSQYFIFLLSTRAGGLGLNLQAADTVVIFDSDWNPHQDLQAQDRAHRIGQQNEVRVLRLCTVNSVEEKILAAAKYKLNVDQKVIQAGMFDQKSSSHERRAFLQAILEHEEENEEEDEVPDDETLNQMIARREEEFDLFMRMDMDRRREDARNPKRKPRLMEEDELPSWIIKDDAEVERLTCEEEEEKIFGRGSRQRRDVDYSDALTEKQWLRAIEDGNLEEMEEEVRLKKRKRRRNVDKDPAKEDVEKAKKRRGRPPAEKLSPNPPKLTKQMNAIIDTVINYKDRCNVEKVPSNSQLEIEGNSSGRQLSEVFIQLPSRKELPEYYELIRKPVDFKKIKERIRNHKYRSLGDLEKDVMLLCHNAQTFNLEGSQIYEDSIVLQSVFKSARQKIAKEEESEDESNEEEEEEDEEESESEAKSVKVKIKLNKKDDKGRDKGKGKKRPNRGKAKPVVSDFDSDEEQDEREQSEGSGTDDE", "test": "In-cell Western screen of BRM degradation in SW1573 cells (Dmax and DC50)", "type": "cell-based", "in_short": "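Overnight compound treatment (18-20 h, final DMSO 0.1%) of SW1573 cells in DMEM with 10% FBS precedes fixation and in-cell Western staining with 800/680 nm dye-labelled secondaries. Plate images give DC50 and maximal degradation.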", "key": {"[1]": {"details": "BRM degradation, SW1573 cells, read-out: DC50"}, "[2]": {"details": "SW1573, % degraded, when tested at the top concentration of between 0.3 and 10 μM, read-out: BRM Dmax (%)"}, "[3]": {"details": "target protein degradation, read-out: BRM DC50"}}, "note": "Like-named read-outs stand apart in the source and are kept apart here.", "data": [{"smiles": "Cc1cc([C@H](C(=O)N2C[C@H](O)C[C@H]2C(=O)N[C@@H](C)c2ccc(-c3scnc3C)cc2)[C@H](C)COCCCCN2C3CCC2CN(c2cc(-c4ccccc4O)nnc2N)C3)on1", "note": "[compound 425, (2S,4R)-1-((2R,3S)-4-(4-(3-(3-amino-6-(2-hydroxyphenyl)pyridazin-4-yl)-3,8-diazabicyclo[3.2.1]octan-8-yl)butoxy)-3-methyl-2-(3-methylisoxazol-5-yl)butanoyl)-4-hydroxy-N-((S)-1-(4-(4-methylthiazol-5-yl)phenyl)ethyl)pyrrolidine-2-carboxamide]", "values": [{"measurement": "DC50", "setting": "degradation of BRM, read-out: BRM DC50", "result": "> 30", "unit": "nM"}]}, {"smiles": "Cc1ncsc1-c1ccc([C@H](COCC2CCOCC2)NC(=O)[C@@H]2C[C@@H](O)CN2C(=O)[C@H](c2cc(OCCN3CCN(CCOc4cc(N5C6CCC5CN(c5cc(-c7ccccc7O)nnc5N)C6)ccn4)CC3)no2)C(C)C)cc1", "note": "[compound 262, (2S,4R)-1-((2S)-2-(3-(2-(4-(2-((4-(3-(3-amino-6-(2-hydroxyphenyl)pyridazin-4-yl)-3,8-diazabicyclo[3.2.1]octan-8-yl)pyridin-2-yl)oxy)ethyl)piperazin-1-yl)ethoxy)isoxazol-5-yl)-3-methylbutanoyl)-4-hydroxy-N-((R)-1-(4-(4-methylthiazol-5-yl)phenyl)-2-((tetrahydro-2H-pyran-4-yl)methoxy)ethyl)pyrrolidine-2-carboxamide]", "values": [{"measurement": "DC50", "setting": "[1]", "result": "> 30", "unit": "nM"}]}, {"smiles": "Cc1ncsc1-c1cc(F)c([C@H](C)NC(=O)[C@@H]2C[C@@H](O)CN2C(=O)[C@@H](c2cc(N3CCC(CN4CCC(O[C@H]5C[C@H](Oc6cc(N7C8CCC7CN(c7cc(-c9ccccc9O)nnc7N)C8)ccn6)C5)CC4)CC3)no2)C(C)C)cc1F", "note": "[compound 681, (2S,4R)-1-((2R)-2-(3-(4-((4-((1r,3r)-3-((4-(3-(3-amino-6-(2-hydroxyphenyl)pyridazin-4-yl)-3,8-diazabicyclo[3.2.1]octan-8-yl)pyridin-2-yl)oxy)cyclobutoxy)piperidin-1-yl)methyl)piperidin-1-yl)isoxazol-5-yl)-3-methylbutanoyl)-N-((S)-1-(2,5-difluoro-4-(4-methylthiazol-5-yl)phenyl)ethyl)-4-hydroxypyrrolidine-2-carboxamide]", "values": [{"measurement": "DC50", "setting": "[1]", "result": "< 2.5", "unit": "nM"}, {"measurement": "Dmax", "setting": "BRM degradation, SW1573 cells, read-out: Dmax (% degraded)", "result": "> 75", "unit": "%"}]}, {"smiles": "Cc1cc([C@@H](C(=O)N2C[C@H](O)C[C@H]2C(=O)N[C@@H](COCCOCCNc2ccc(-c3ccccc3O)nn2)c2ccc(-c3scnc3C)cc2)C(C)C)on1", "note": "[compound 525, (2S,4R)-4-hydroxy-N-((R)-2-(2-(2-((6-(2-hydroxyphenyl)pyridazin-3-yl)amino)ethoxy)ethoxy)-1-(4-(4-methylthiazol-5-yl)phenyl)ethyl)-1-((S)-3-methyl-2-(3-methylisoxazol-5-yl)butanoyl)pyrrolidine-2-carboxamide]", "values": [{"measurement": "DC50", "setting": "BRM degradation, read-out: BRM DC50", "result": "> 30", "unit": "nM"}]}, {"smiles": "Cc1ncsc1-c1ccc([C@H](C)NC(=O)[C@@H]2C[C@@H](O)CN2C(=O)[C@@H](c2cc(N3CCC(CN4CCC(O[C@H]5C[C@H](N6CCOC7(CCN(c8cc(-c9ccccc9O)nnc8N)CC7)C6)C5)CC4)CC3)no2)C(C)C)cc1", "note": "[compound 618, (2S,4R)-1-((R)-2-(3-(4-((4-((1r,3r)-3-(9-(3-amino-6-(2-hydroxyphenyl)pyridazin-4-yl)-1-oxa-4,9-diazaspiro[5.5]undecan-4-yl)cyclobutoxy)piperidin-1-yl)methyl)piperidin-1-yl)isoxazol-5-yl)-3-methylbutanoyl)-4-hydroxy-N-((S)-1-(4-(4-methylthiazol-5-yl)phenyl)ethyl)pyrrolidine-2-carboxamide]", "values": [{"measurement": "Dmax", "setting": "BRM degradation, SW1573 cells, Table 2D, read-out: **Dmax (%) (% degraded)", "result": "> 75", "unit": "%"}, {"measurement": "DC50", "setting": "BRM degradation, SW1573 cells, Table 2D, read-out: *DC50", "result": "< 2.5", "unit": "nM"}]}, {"smiles": "CC(C)[C@H](C(=O)N1C[C@H](O)C[C@H]1C(=O)N[C@@H](C)c1ccc(-c2scnc2CO)cc1)c1cc(OCCN2CCC(O[C@H]3C[C@H](Oc4cc(N5C6CCC5CN(c5cc(-c7ccccc7O)nnc5N)C6)ccn4)C3)CC2)no1", "note": "[compound 219, (2S,4R)-1-((2S)-2-(3-(2-(4-((1r,3S)-3-((4-(3-(3-amino-6-(2-hydroxyphenyl)pyridazin-4-yl)-3,8-diazabicyclo[3.2.1]octan-8-yl)pyridin-2-yl)oxy)cyclobutoxy)piperidin-1-yl)ethoxy)isoxazol-5-yl)-3-methylbutanoyl)-4-hydroxy-N-((S)-1-(4-(4-(hydroxymethyl)thiazol-5-yl)phenyl)ethyl)pyrrolidine-2-carboxamide]", "values": [{"measurement": "DC50", "setting": "[1]", "result": "> 30", "unit": "nM"}]}, {"smiles": "CC(C)[C@@H](C(=O)N1C[C@H](O)C[C@H]1C(=O)N[C@@H](C)c1ccc(-c2ccnn2C)cc1)c1cc(OCCN2CCN(CCOc3cc(N4C5CCC4CN(c4cc(-c6ccccc6O)nnc4N)C5)ccn3)CC2)no1", "note": "[compound 264, (2S,4R)-1-((2R)-2-(3-(2-(4-(2-((4-(3-(3-amino-6-(2-hydroxyphenyl)pyridazin-4-yl)-3,8-diazabicyclo[3.2.1]octan-8-yl)pyridin-2-yl)oxy)ethyl)piperazin-1-yl)ethoxy)isoxazol-5-yl)-3-methylbutanoyl)-4-hydroxy-N-((S)-1-(4-(1-methyl-1H-pyrazol-5-yl)phenyl)ethyl)pyrrolidine-2-carboxamide]", "values": [{"measurement": "DC50", "setting": "[1]", "result": "< 2.5", "unit": "nM"}, {"measurement": "Dmax", "setting": "BRM degradation, SW1573 cells, tested at the top concentration of between 0.3 and 10 μM, read-out: Dmax (%) (% degraded)", "result": "> 75", "unit": "%"}]}, {"smiles": "Cc1ncsc1-c1ccc([C@H](C)NC(=O)[C@@H]2C[C@@H](O)CN2C(=O)[C@H](c2cc(OCCC3CCN(C(=O)[C@H]4C[C@@H](CN5CCC([C@@H](C)n6cc(-c7cc(-c8ccccc8O)nnc7N)cn6)CC5)C4)CC3)no2)C(C)C)cc1", "note": "[compound 451, (2S,4R)-1-((S)-2-(3-(2-(1-((1S,3R)-3-((4-((R)-1-(4-(3-amino-6-(2-hydroxyphenyl)pyridazin-4-yl)-1 H-pyrazol-1-yl)ethyl)piperidin-1-yl)methyl)cyclobutane-1-carbonyl)piperidin-4-yl)ethoxy)isoxazol-5-yl)-3-methylbutanoyl)-4-hydroxy-N-((S)-1-(4-(4-methylthiazol-5-yl)phenyl)ethyl)pyrrolidine-2-carboxamide]", "values": [{"measurement": "Dmax", "setting": "[2]", "result": "> 75", "unit": "%"}, {"measurement": "DC50", "setting": "[3]", "result": "< 2.5", "unit": "nM"}]}, {"smiles": "Cc1ncsc1-c1ccc([C@H](C)NC(=O)[C@@H]2C[C@@H](O)CN2C(=O)[C@@H](c2cc(OCCN3CCC(O[C@H]4C[C@H](OCC#CCn5cc(-c6cc(-c7ccccc7O)nnc6N)cn5)C4)CC3)no2)C(C)C)cc1", "note": "[compound 395, (2S,4R)-1-((R)-2-(3-(2-(4-((1r,3R)-3-((4-(4-(3-amino-6-(2-hydroxyphenyl)pyridazin-4-yl)-1H-pyrazol-1-yl)but-2-yn-1-yl)oxy)cyclobutoxy)piperidin-1-yl)ethoxy)isoxazol-5-yl)-3-methylbutanoyl)-4-hydroxy-N-((S)-1-(4-(4-methylthiazol-5-yl)phenyl)ethyl)pyrrolidine-2-carboxamide]", "values": [{"measurement": "Dmax", "setting": "[2]", "result": "> 75", "unit": "%"}, {"measurement": "DC50", "setting": "[3]", "result": "< 2.5", "unit": "nM"}]}, {"smiles": "Cc1ncsc1-c1ccc([C@H](C)NC(=O)[C@@H]2C[C@@H](O)CN2C(=O)[C@H](c2cc(N3CCC4(CCCN(C[C@H]5C[C@H](Oc6cc(N7C8CCC7CN(c7cc(-c9ccccc9O)nnc7N)C8)ccn6)C5)C4)CC3)no2)C(C)C)cc1", "note": "[compound 659, (2S,4R)-1-((2S)-2-(3-(2-(((1r,3S)-3-((4-(3-(3-amino-6-(2-hydroxyphenyl)pyridazin-4-yl)-3,8-diazabicyclo[3.2.1]octan-8-yl)pyridin-2-yl)oxy)cyclobutyl)methyl)-2,9-diazaspiro[5.5]undecan-9-yl)isoxazol-5-yl)-3-methylbutanoyl)-4-hydroxy-N-((S)-1-(4-(4-methylthiazol-5-yl)phenyl)ethyl)pyrrolidine-2-carboxamide]", "values": [{"measurement": "DC50", "setting": "[1]", "result": "> 30", "unit": "nM"}]}, {"smiles": "Cc1ncsc1-c1ccc([C@H](C)NC(=O)[C@@H]2C[C@@H](O)CN2C(=O)[C@H](c2cc(N3CCC(OC4CCN(C[C@H]5C[C@H](Oc6cc(N7C8CCC7CN(c7cc(-c9ccccc9O)nnc7N)C8)ccn6)C5)CC4)CC3)no2)C(C)C)cc1", "note": "[compound 469, (2S,4R)-1-((2S)-2-(3-(4-((1-(((1r,3r)-3-((4-(3-(3-amino-6-(2-hydroxyphenyl)pyridazin-4-yl)-3,8-diazabicyclo[3.2.1]octan-8-yl)pyridin-2-yl)oxy)cyclobutyl)methyl)piperidin-4-yl)oxy)piperidin-1-yl)isoxazol-5-yl)-3-methylbutanoyl)-4-hydroxy-N-((S)-1-(4-(4-methylthiazol-5-yl)phenyl)ethyl)pyrrolidine-2-carboxamide]", "values": [{"measurement": "DC50", "setting": "[3]", "result": "> 30", "unit": "nM"}]}, {"smiles": "Cc1cnnn1-c1ccc([C@H](C)NC(=O)[C@@H]2C[C@@H](O)CN2C(=O)[C@H](c2cc(OCCN3CCN(CCOc4cc(N5C6CCC5CN(c5cc(-c7ccccc7O)nnc5N)C6)ccn4)CC3)no2)C(C)C)cc1", "note": "[compound 274, (2S,4R)-1-((2S)-2-(3-(2-(4-(2-((4-(3-(3-amino-6-(2-hydroxyphenyl)pyridazin-4-yl)-3,8-diazabicyclo[3.2.1]octan-8-yl)pyridin-2-yl)oxy)ethyl)piperazin-1-yl)ethoxy)isoxazol-5-yl)-3-methylbutanoyl)-4-hydroxy-N-((S)-1-(4-(5-methyl-1H-1,2,3-triazol-1-yl)phenyl)ethyl)pyrrolidine-2-carboxamide]", "values": [{"measurement": "DC50", "setting": "[1]", "result": "> 30", "unit": "nM"}]}, {"smiles": "Cc1ncsc1-c1ccc(CNC(=O)[C@@H]2C[C@@H](O)CN2C(=O)[C@@H](NC(=O)COCCOCCOCCOCCOCCOCCOCCOc2cc(N3C4CCC3CN(c3cc(-c5ccccc5O)nnc3N)C4)ccn2)C(C)(C)C)cc1", "note": "[compound 10, (2S,4R)-1-((2S)-26-((4-(3-(3-amino-6-(2-hydroxyphenyl)pyridazin-4-yl)-3,8-diazabicyclo[3.2.1]octan-8-yl)pyridin-2-yl)oxy)-2-(tert-butyl)-4-oxo-6,9,12,15,18,21,24-heptaoxa-3-azahexacosanoyl)-4-hydroxy-N-(4-(4-methylthiazol-5-yl)benzyl)pyrrolidine-2-carboxamide]", "values": [{"measurement": "DC50", "setting": "[1]", "result": "2.5 to 10", "unit": "nM"}, {"measurement": "Dmax", "setting": "BRM degradation, SW1573 cells, when tested at the top concentration of between 0.3 and 10 μM, read-out: Dmax (%) (% degraded)", "result": "> 75", "unit": "%"}]}]}
